Test: Storage stability at room temperature and 100% relative humidity
Assay type: physicochemical
Settings: 200 mg stored for a month at room temperature and 100% relative humidity
Protocol: For the assessment of stability, 200 mg of the Example A6 product (60% w/w QS in EC) was stored for a month at room temperature and 100% relative humidity, alongside a sample of the as-received pure QS.

Compound: C=C[C@H]1C[N@@]2CC[C@H]1C[C@H]2[C@H](O)c1ccnc2ccc(OC)cc12 [quinine sulphate]
- powder physical appearance and flow properties after storage: signs of partial caking and a lower degree of powder flowability

Reference: patent publication US10798955B2, “Compositions of particulate coformulation” (Nektar Therapeutics, priority 2000, dated 2020)
